Read-outs that look alike come from different tables or passages of the source.

Assay type in all cases: biochemical
Test [1] deals with T1, Sirt1 (Homo sapiens, UniProt Q96EB6).
T1 construct: Expression and purification of Sirt1_133−747, Sirt2_56−356, and Sirt3_118−395 was carried out as described previously; made in house
T1 sequence (Q96EB6 133-747): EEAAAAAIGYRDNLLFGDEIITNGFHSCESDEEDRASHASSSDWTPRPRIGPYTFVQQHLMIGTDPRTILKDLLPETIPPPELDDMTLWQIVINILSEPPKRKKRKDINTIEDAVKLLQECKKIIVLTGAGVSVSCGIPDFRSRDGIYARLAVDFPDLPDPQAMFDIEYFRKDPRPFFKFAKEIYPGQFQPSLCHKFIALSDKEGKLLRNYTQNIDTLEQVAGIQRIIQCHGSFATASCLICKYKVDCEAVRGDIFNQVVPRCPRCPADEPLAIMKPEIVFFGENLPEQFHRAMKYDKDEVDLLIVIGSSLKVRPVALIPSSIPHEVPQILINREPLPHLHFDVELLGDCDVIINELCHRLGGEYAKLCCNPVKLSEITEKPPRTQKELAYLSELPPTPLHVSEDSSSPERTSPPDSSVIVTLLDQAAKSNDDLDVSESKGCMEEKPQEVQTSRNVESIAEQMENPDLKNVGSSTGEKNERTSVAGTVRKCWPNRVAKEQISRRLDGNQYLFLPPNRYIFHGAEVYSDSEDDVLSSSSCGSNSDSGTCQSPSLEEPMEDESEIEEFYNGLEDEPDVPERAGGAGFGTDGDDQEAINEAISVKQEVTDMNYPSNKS
Description: Fluorescence-based ZMAL deacetylase activity assay, Sirt1. In a few lines: (§1)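 Recombinant Sirt1_133−747, Sirt2_56−356 and Sirt3_118−395 deacetylated ZMAL, and trypsin then released AMC (ex 390/em 460 nm). Compounds were tested at 100 or 50 μM and 10 μM, with or without prior 365 nm irradiation (5 min) in DMSO. Inhibition is relative to a DMSO control, and IC50 came from a four-parameter fit over 8–10 concentrations.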

Test [2] has as its target T2, Sirt2 (Homo sapiens, UniProt Q8IXJ6).
T2 construct: Expression and purification of Sirt1_133−747, Sirt2_56−356, and Sirt3_118−395 was carried out as described previously; made in house
T2 sequence (Q8IXJ6 56-356): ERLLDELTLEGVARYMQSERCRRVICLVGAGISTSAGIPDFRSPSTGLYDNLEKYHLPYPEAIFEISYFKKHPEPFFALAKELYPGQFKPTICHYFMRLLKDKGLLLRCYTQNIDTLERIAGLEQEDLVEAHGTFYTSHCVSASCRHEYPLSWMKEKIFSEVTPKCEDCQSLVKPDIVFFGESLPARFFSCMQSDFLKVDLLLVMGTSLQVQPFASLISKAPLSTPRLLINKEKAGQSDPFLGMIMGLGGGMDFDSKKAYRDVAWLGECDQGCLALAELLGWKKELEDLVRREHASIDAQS
Put plainly: Fluorescence-based ZMAL deacetylase activity assay, Sirt2. On the set-up: key to Sirt2 inhibition Δ (class): n.i.: no inhibition detected (<30 % @ 100 μM); u.i.: unspecific interactions. In a few lines:
as §1

Test [3] has as its target T3, Sirt3 (Homo sapiens, UniProt Q9NTG7).
T3 construct: Expression and purification of Sirt1_133−747, Sirt2_56−356, and Sirt3_118−395 was carried out as described previously; made in house
T3 sequence (Q9NTG7 118-395): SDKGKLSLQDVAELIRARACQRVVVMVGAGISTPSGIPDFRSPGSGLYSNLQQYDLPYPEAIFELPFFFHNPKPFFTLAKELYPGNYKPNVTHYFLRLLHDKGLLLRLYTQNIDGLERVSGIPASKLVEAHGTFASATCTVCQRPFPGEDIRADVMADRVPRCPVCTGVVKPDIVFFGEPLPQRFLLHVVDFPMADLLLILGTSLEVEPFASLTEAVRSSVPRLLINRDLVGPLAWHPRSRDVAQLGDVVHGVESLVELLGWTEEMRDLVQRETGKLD
Put plainly: Fluorescence-based ZMAL deacetylase activity assay, Sirt3. Also noted: key to Sirt3 inhibition Δ (class) / Sirt3 inhibition PSS [365 nm] (class): n.i.: no inhibition detected (<30 % @ 100 μM); u.i.: unspecific interactions. In a few lines: as §1

Setting [4] is: PSS after 5 min UV irradiation (365 nm), read-out: Sirt2 inhibition PSS [365 nm], IC50.

Take `NC(=O)c1cncc(OCc2cccc(/N=N/c3ccc(F)cc3)c2)c1` [20 b]: the inhibition (as a rule, how much of the control response was suppressed) at 100 µM in test [1] (PSS after 5 min UV irradiation (365 nm), read-out: Sirt1 inhibition PSS [365 nm] (class)) is under 30%; in test [1] (thermal equilibrium (Δ), read-out: Sirt1 inhibition Δ (class)) it was under 30%. The “decrease of Sirt2 inhibition upon 365 nm irradiation (factor)” value in test [2] (PSS 365 nm versus thermal equilibrium) is “twofold”. In addition, the IC50 (as a rule, the concentration that inhibits the measured activity by half) in test [2] (setting [4]) was 6.4 ± 0.5 µM; in test [2] (thermal equilibrium (Δ), read-out: Sirt2 inhibition Δ, IC50) it was 3.2 ± 0.5 µM. Also, the inhibition at 10 µM is 47% in test [3] (PSS after 5 min UV irradiation (365 nm), read-out: Sirt3 inhibition PSS [365 nm], percent inhibition) and 34% in test [3] (thermal equilibrium (Δ), read-out: Sirt3 inhibition Δ, percent inhibition).
As for `C#Cc1ccc(/N=N/c2cccc(COc3cncc(C(N)=O)c3)c2)cc1` [20 c], the inhibition at 100 µM in test [1] (@ 100 μM, PSS after 5 min UV irradiation (365 nm), read-out: Sirt1 inhibition PSS [365 nm], percent inhibition) is 62%; in test [1] (@ 100 μM, thermal equilibrium (Δ), read-out: Sirt1 inhibition Δ, percent inhibition), 45%. Besides, the IC50 in test [2] (setting [4]) is 6.2 ± 0.54 µM; in test [3] (PSS after 5 min UV irradiation (365 nm), read-out: Sirt3 inhibition PSS [365 nm], IC50), 17.2 ± 1.57 µM. The “Sirt2 inhibition Δ (class)” value in test [2] (thermal equilibrium (Δ)) is reported as “u.i”. Moreover, the “Sirt3 inhibition Δ (class)” value in test [3] (thermal equilibrium (Δ)) is “u.i”.

(Values after publication PMC7496931, “Activation of Sirtuin 2 Inhibitors Employing Photoswitchable Geometry and Aqueous Solubility” (Chemmedchem, 2020).)
